These results are taken from patent US9926295B2, “Potent and selective inhibitors of hepatitis C virus” (Cocrystal Pharma, Inc., priority 2014, dated 2018).

Common to all, as to format: cell-based
Series [1] in a line: Cellular toxicity assay in CEM cells. The following applies: human, CEM (human lymphoblastoid) cells, read-out: Cytotoxicity (IC50 μM) CEM. Here is the method:
(§1) The toxicity of the compounds was assessed in Vero, human PBM, CEM (human lymphoblastoid), MT-2, and HepG2 cells, as described previously (see Schinazi R. F., Sommadossi J.-P., Saalmann V., Cannon D. L., Xie M.-Y., Hart G. C., Smith G. A. & Hahn E. F. Antimicrob. Agents Chemother. 1990, 34, 1061-67). Cycloheximide was included as positive cytotoxic control, and untreated cells exposed to solvent were included as negative controls. The cytotoxicity IC50 was obtained from the concentration-response curve using the median effective method described previously (see Chou T.-C. & Talalay P. Adv. Enzyme Regul. 1984, 22, 27-55; Belen'kii M. S. & Schinazi R. F. Antiviral Res. 1994, 25, 1-11).

The subject of series [2] is HCV Replicon RNA (HCV 1b) in Huh 7 Clone B cells. In words: HCV Replicon Assay. To be noted: Hepatitis C virus, 120 h, five days incubation. How it is done:
Huh 7 Clone B cells containing HCV Replicon RNA would be seeded in a 96-well plate at 5000 cells/well, and the compounds tested at 10 μM in triplicate immediately after seeding. Following five days incubation (37° C., 5% CO2), total cellular RNA was isolated by using versaGene RNA purification kit from Gentra. Replicon RNA and an internal control (TaqMan rRNA control reagents, Applied Biosystems) were amplified in a single step multiplex Real Time RT-PCR Assay. The antiviral effectiveness of the compounds was calculated by subtracting the threshold RT-PCR cycle of the test compound from the threshold RT-PCR cycle of the no-drug control (ΔCt HCV). A ΔCt of 3.3 equals a 1-log reduction (equal to 90% less starting material) in Replicon RNA levels. The cytotoxicity of the compounds was also calculated by using the ΔCt rRNA values. 2′-C-Me-C was used as the positive control. To determine EC90 and IC50 values^2, ΔCt: values were first converted into fraction of starting material^3 and then were used to calculate the % inhibition.
• 1. Stuyver L et al., Ribonucleoside analogue that blocks replication or bovine viral diarrhea and hepatitis C viruses in culture. Antimicrob. Agents Chemother. 2003, 47, 244-254. • 2. Reed I J & Muench H, A simple method or estimating fifty percent endpoints. Am. J. Hyg. 27: 497, 1938. • 3. Applied Biosystems Handbook Median Effective concentrations (EC50) ranges against HCV 1b are as follow: A=[…] B=100-999 nM C=1-99 nM D=<1 nM
In general terms: Replicon systems follow genome replication, usually without infectious particles.

Series [3] can be described thus: Cellular toxicity assay in human PBM cells. To be noted: read-out: Cytotoxicity (IC50 μM) PBM. How it is done:
as §1

Series [4] in a line: Cellular toxicity assay in Vero cells. The following applies: African green monkey, read-out: Cytotoxicity (IC50 μM) Vero. How it is done: as §1

The term IC50 denotes the concentration that gives 50% inhibition. Broadly, the EC50 is the concentration needed to bring the measured effect to its halfway point. Low readings indicate greater potency, high ones weaker potency. Broadly, the EC90 is the concentration at which the effect reaches the 90% level.

`COC(=O)N[C@H](C(=O)N1CCCC1c1ncc(-c2ccc(-c3ccc(-c4[nH]c([C@@H]5C[C@H]([S+](C)[O-])CN5C(=O)[C@@H](NC(=O)OC)c5ccccc5)nc4Cl)cc3)cc2)[nH]1)c1ccccc1` (stereo partly drawn) [Compound 48]: the results for the IC50 in series [1], in series [3] and in series [4] were 1.8 µM, 67.6 µM and greater than 100 µM, respectively. For the same compound, in series [2] (values in nM), a half-maximal response (EC50) required 0.07 nM. The compound further gave an EC90 in series [2] (values in nM) of 0.5 nM.

In the case of `COC(=O)N[C@H](C(=O)N1CCCC1c1ncc(-c2ccc(-c3ccc(-c4[nH]c([C@@H]5C[C@H](SC)CN5C(=O)[C@@H](NC(=O)OC)C(C)C)nc4Cl)cc3)cc2)[nH]1)C(C)C` (stereo partly drawn) [Compound 45], the IC50 in series [1] amounted to 5.2 µM; in series [3] it was 27.2 µM; in series [4], 14.4 µM. Also, the EC50 in series [2] (pM) is 0.0163 nM. In addition, the EC90 in series [2] (pM) was found to be 0.0316 nM.

With `COC(=O)N[C@H](C(=O)N1CCCC1c1ncc(-c2ccc(-c3ccc(-c4[nH]c([C@@H]5C[C@H]([S+](C)[O-])CN5C(=O)[C@@H](NC(=O)OC)C(C)C)nc4Cl)cc3)cc2)[nH]1)C(C)C` (stereo partly drawn) [Compound 46], the IC50 in series [1] was determined as 3.7 µM; in series [3] it was 13.6 µM; in series [4], 45.8 µM. The EC50 in series [2] (values in nM) was 0.06 nM. In series [2] (values in nM), this compound registered an EC90 of 0.3 nM.

Turning to `COC(=O)N[C@H](C(=O)N1CCCC1c1nc(Cl)c(-c2ccc(-c3ccc(-c4cnc([C@@H]5C[C@H]([S+](C)[O-])CN5C(=O)[C@@H](NC(=O)OC)c5ccccc5)[nH]4)cc3)cc2)[nH]1)c1ccccc1` (stereo partly drawn) [Compound 44], the IC50 was 3.6 µM in series [1], 89.7 µM in series [3] and greater than 100 µM in series [4]. A half-maximal response in series [2] (values in nM) (EC50) required 0.2 nM. In addition, in series [2] (values in nM), it took 1.1 nM to reach the 90% level (EC90).

Regarding `COC(=O)N[C@H](C(=O)N1CCCC1c1nc(Cl)c(-c2ccc(-c3ccc(-c4[nH]c([C@@H]5C[C@H]([S+](C)[O-])CN5C(=O)[C@@H](NC(=O)OC)c5ccccc5)nc4Cl)cc3)cc2)[nH]1)c1ccccc1` (stereo partly drawn) [Compound 52], the values for the IC50 in series [1], in series [3] and in series [4] were 7.1 µM, 83.9 µM and greater than 100 µM, respectively. In addition, the EC50 in series [2] (values in nM) was found to be 0.06 nM. This compound also gave an EC90 in series [2] (values in nM) of 0.2 nM.

Turning to `COC(=O)N[C@H](C(=O)N1CCCC1c1nc(Cl)c(-c2ccc(-c3ccc(-c4[nH]c([C@@H]5C[C@H](SC)CN5C(=O)[C@@H](NC(=O)OC)c5ccccc5)nc4Cl)cc3)cc2)[nH]1)c1ccccc1` (stereo partly drawn) [Compound 51], the IC50 in series [1], in series [3] and in series [4] was greater than 100 µM each time. In series [2] (pM), this compound showed an EC50 of 0.0077 nM. This compound showed an EC90 in series [2] (pM) of 0.0191 nM.

Regarding `COC(=O)N[C@H](C(=O)N1CCCC1c1nc(Cl)c(-c2ccc(-c3ccc(-c4[nH]c([C@@H]5C[C@H](SC)CN5C(=O)[C@@H](NC(=O)OC)C(C)C)nc4Cl)cc3)cc2)[nH]1)C(C)C` (stereo partly drawn) [Compound 49], the IC50 was 2.5 µM in series [1], 24.3 µM in series [3] and greater than 100 µM in series [4]. This compound also yielded an EC50 in series [2] (pM) of 0.0034 nM. Further, the 90% effect level in series [2] (pM) (EC90) was put at 0.0699 nM.

For `COC(=O)N[C@H](C(=O)N1CCCC1c1ncc(-c2ccc(-c3ccc(-c4[nH]c([C@@H]5C[C@H](SC)CN5C(=O)[C@@H](NC(=O)OC)c5ccccc5)nc4Cl)cc3)cc2)[nH]1)c1ccccc1` (stereo partly drawn) [Compound 47], the IC50 in series [1], in series [3] and in series [4] was greater than 100 µM each time. In series [2] (pM), the EC50 worked out at 0.004 nM. This compound also had an EC90 in series [2] (pM) of 0.0231 nM.

On to `COC(=O)N[C@H](C(=O)N1CCCC1c1nc(Cl)c(-c2ccc(-c3ccc(-c4cnc([C@@H]5C[C@H](SC)CN5C(=O)[C@@H](NC(=O)OC)C(C)C)[nH]4)cc3)cc2)[nH]1)C(C)C` (stereo partly drawn) [Compound 42], for which the IC50 is 3.1 µM in series [1], 60 µM in series [3] and 34.5 µM in series [4]. This compound had an EC50 in series [2] (pM) of 0.0139 nM. Moreover, the 90% effect level in series [2] (pM) (EC90) was put at 0.0263 nM.
